Data: US20240197897A1, “HETEROTANDEM BICYCLIC PEPTIDE COMPLEXES” (Bicycle Tx Limited, priority 2021, published 2024)
Starred links: 1 amine or outer side, 2 acyl side, 3 side chain; linkers in the order of their positions; H or OH if unused. Positions of bridges follow the written chain, without caps; N, C: chain ends. Non-standard residues stand in square brackets, D forms with d. Residues, ends and D or L forms follow the SMILES beside them. Chains are numbered I, II in the order given. No end group written: not given here. *: point of attachment. TATA = O=C(CC[*:1])N1CN(C(=O)CC[*:2])CN(C(=O)CC[*:3])C1; X2 = O=C(CCOCCOCCOCCOCCOCCn1cc(CCC(=O)[*:2])nn1)[*:1]; Hyp = O=C(O)[C@@H]1C[C@@H](O)CN1; hArg = N=C(N)NCCCC[C@H](N)C(=O)O; Cba = N[C@@H](CC1CCC1)C(=O)O; Pent4ynoyl = C#CCCC(=O)*

Experiments:
[1] = system: NK cells co-cultured with the HT1080-luc tumor cell line; assay: Cytokine secretion assay (IFN-gamma, TNF-alpha; NK:HT1080-luc co-culture); format: cell-based, human; conditions: for TNF-alpha and IFN-gamma production from NK cells: 2 nM construct, Luminex, FIG. 11
Protocol: (§1) Heterotandem bicyclic peptide complexes were evaluated for NK functional readouts (cytotoxicity and cytokine secretion) in NK-tumor cell line co-cultures.
NK cells were isolated using a negative isolation kit (STEMCELL Technologies® 17955) from the total PBMC population purified from whole blood. NK cell pellet was then resuspended in DMEM medium (Corning™ 10-013-CV) with 10% heat-inactivated fetal bovine serum (FBS; Corning® 35-011-CV), 10 mM HEPES (Gibco™ 15-630-080), and 1% Penicillin Streptomycin (Corning™ 30-002-CI), and 50 IU/mL human IL-2 (Miltenyi Biotec® 130-097-748), at a concentration of 4×10^5 cells/mL. For the NK cell cytokine secretion assay, […] NK cell in 50 μl cell suspension were plated in the 96-well U-bottom plate (Grenier Bio One™ 650180) containing 50 μl (4×10^4) HT1080-luc cells (ATCC® CCL-121-luc2) in DMEM (Gibco™ 11875-093; with L-glutamine) with 10% heat-inactivated fetal bovine serum (FBS; Corning® 35-011-CV), 10 mM HEPES (Gibco™ 15-630-080), and 1% Penicillin Streptomycin (Corning™ 30-002-CI). […] The plates were then incubated for 4 hours at 37° C., 5% CO2. Post-incubation, plates was centrifuged at 250×g for 5 minutes and 100 μl supernatant harvested. Samples were immediately stored at −20° C. or assessed for cytokine levels. Interferon-gamma or TNF-alpha levels were measured in 50 μl of collected supernatants through the Human IFN-gamma Quantikine™ ELISA kit (R&D Systems DIF50C) or Human TNF-alpha Quantikine™ ELISA kit (R&D Systems DTAOOD). Data was acquired at wavelength of 450 nm on CLARIOstar® plate-reader and was fit to a four-parameter non-linear regression in CLARIOstar® plate reader MARS Data Analysis™ software and analyzed with GraphPad Prism™ 8.0.2 software to quantify to cytokine levels. Alternatively, TNF-alpha and IFN-gamma cytokine were measured from 25 μl of collected supernatant by Luminex Assay: Human XL Cytokine Discovery Premixed Kit (R&D Systems, FCS™ 18-05) Luminex 200™ flow instrument and xPONENT™ analysis software.

HT1080-luc cells = assay: NK cytotoxicity assay (NK:HT1080-luc co-culture, luciferase readout); format: cell-based, human; conditions: in comparison to NK:HT1080-luc co-culture without heterotandem complex (NK-TICA)
Protocol: as §1
(§2) NK cells were isolated using a negative isolation kit (STEMCELL™ Technologies 17955) from the total PBMC population purified from whole blood. NK cell pellet was then resuspended in DMEM medium (Corning™ 10-013-CV) with 10% heat-inactivated fetal bovine serum (FBS; Corning® 35-011-CV), 10 mM HEPES (Gibco™ 15-630-080), and 1% Penicillin Streptomycin (Corning™ 30-002-CI), and 50 IU/mL human IL-2 (Miltenyi Biotec® 130-097-748), at a concentration of 4×10^5 cells/mL. For the NK cell cytotoxicity assays, 50 μL (2×10^4) of cell suspension was plated in the 96-well plate (Grenier® Bio One™ 655090) containing 50 μl (4×10^3) HT1080-luc cells (ATCC® CCL-121-luc2) in DMEM (Gibco™ 11875-093; with L-glutamine) with 10% heat-inactivated fetal bovine serum (FBS; Corning® 35-011-CV), 10 mM HEPES (Gibco™ 15-630-080), and 1% Penicillin Streptomycin (Corning™ 30-002-CI). […] The plates were then incubated for 24 hours at 37° C., 5% CO2. Post-incubation, plates was centrifuged at 250×g for 5 minutes and 100 μl supernatant discarded. Samples were then incubated 10 minutes with 50 μl Bright-Glo™ Luciferase Assay system (Promega™ E2620). Luminescence upon excitation at 570 nm was read using a CLARIOstar® plate-reader with MARS Data Analysis Software™. Data was fit to a four-parameter non-linear regression in GraphPad Prism™ 8.0.2 to generate an EC50 value.

[2] = as above; format: cell-based, human; conditions: NK:HT1080-luc co-culture, 24 hours, four-parameter logistic regression; FIGS. 2-4, 6-8, 10; read-out: EC50 NK cytotoxicity (tumor cell killing)
Protocol: as §1, §2

NKp46 (human) = NKp46 (human) (UniProt O76036); assay: cell-based or functional assay
[3] = biological target: EPH receptor A2 (ephrin type-A receptor 2) (human) (UniProt P29317); assay: cell-based or functional assay
Chain of EPH receptor A2 (ephrin type-A receptor 2) (human) (P29317 24-976): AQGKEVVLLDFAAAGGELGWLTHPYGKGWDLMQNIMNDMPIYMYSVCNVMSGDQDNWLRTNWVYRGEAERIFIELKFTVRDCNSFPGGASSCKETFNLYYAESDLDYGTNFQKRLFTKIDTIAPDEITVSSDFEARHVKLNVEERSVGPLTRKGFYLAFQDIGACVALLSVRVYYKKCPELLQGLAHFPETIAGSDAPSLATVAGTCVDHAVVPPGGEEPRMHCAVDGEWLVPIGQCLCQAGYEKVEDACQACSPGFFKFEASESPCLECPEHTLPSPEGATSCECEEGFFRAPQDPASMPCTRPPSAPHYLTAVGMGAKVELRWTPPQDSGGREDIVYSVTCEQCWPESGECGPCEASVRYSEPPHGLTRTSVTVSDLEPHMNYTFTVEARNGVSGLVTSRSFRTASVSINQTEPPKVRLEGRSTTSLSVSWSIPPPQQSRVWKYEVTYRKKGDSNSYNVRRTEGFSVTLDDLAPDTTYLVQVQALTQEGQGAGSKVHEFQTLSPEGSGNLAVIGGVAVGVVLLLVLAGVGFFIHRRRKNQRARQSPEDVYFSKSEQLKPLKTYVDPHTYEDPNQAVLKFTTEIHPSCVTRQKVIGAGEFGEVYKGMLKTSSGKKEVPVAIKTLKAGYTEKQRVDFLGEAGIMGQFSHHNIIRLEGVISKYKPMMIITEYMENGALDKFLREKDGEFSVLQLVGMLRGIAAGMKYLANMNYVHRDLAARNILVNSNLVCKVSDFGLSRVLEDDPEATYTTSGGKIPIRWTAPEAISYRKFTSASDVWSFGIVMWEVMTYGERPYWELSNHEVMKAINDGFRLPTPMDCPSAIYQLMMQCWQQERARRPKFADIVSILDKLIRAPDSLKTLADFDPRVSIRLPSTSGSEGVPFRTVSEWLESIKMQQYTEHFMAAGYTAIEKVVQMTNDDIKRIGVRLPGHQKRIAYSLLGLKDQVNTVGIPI

Chain of NKp46 (human) (O76036 22-304): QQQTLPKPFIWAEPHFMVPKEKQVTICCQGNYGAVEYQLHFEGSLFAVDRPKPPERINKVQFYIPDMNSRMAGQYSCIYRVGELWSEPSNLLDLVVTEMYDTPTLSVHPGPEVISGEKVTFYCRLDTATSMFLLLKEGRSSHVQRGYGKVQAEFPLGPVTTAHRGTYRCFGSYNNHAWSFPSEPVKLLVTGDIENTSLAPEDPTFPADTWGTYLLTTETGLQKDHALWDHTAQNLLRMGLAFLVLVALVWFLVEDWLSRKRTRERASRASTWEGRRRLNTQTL

## CC(=O)N[C@H]1CSCCC(=O)N2CN3CN(C2)C(=O)CCSC[C@H](NC(=O)[C@H](CC(C)C)NC(=O)[C@H](Cc2ccc(O)cc2)NC(=O)[C@H](CC(=O)O)NC(=O)[C@@H]2CCCN2C(=O)[C@H](CC2CCC2)NC(=O)[C@H](Cc2ccc(O)cc2)NC1=O)C(=O)N[C@H](C)C(=O)N[C@@H](CC(=O)O)C(=O)N[C@@H](CCC(=O)O)C(=O)N[C@@H](Cc1ccc(O)cc1)C(=O)N[C@H](C(=O)N[C@@H](CCCCNC(=O)CCc1cn(CCOCCOCCOCCOCCOCCC(=O)N[C@@H](C)C(=O)N[C@@H](CCCCNC(=N)N)C(=O)N[C@@H](CC(=O)O)C(=O)N[C@H]2CSCCC(=O)N4CN5CN(C4)C(=O)CCSC[C@H](NC(=O)[C@H](CC(C)C)NC(=O)[C@@H]4CCCN4C(=O)[C@H](CC(N)=O)NC(=O)[C@H](C(C)C)NC(=O)[C@H](CC(C)C)NC(=O)[C@@H]4C[C@@H](O)CN4C2=O)C(=O)N[C@@H](CC(C)C)C(=O)N[C@@H](Cc2c[nH]cn2)C(=O)N2CCC[C@H]2C(=O)N[C@H](CC(=O)O)C(=O)N[C@@H](Cc2c[nH]c4ccccc24)C(=O)N[C@@H](CCCCNC(=N)N)C(=O)N[C@H](C(N)=O)CSCCC5=O)nn1)C(N)=O)CSCCC3=O [BCY17225] (I: A[hArg]DC[Hyp]LVNPLCLHP[dD]W[hArg]C-NH2 / II: Ac-CY[Cba]PDYLC[dA]DEYCK-NH2; linker I:4-I:11-I:18, II:1-II:8-II:13 via TATA; linker I:N-II:14 via X2; C-terminus assumed)
[1]
  TNF-alpha and IFN-gamma production from NK cells: Cytokine production from NK cells was observed
HT1080-luc cells
  effect on tumor cell killing by NK cells, in words: enhanced, dose-dependent effect in tumor cell killing
[2]
  EC50: 3.6 pM

## CC(=O)N[C@H]1CSCCC(=O)N2CN3CN(C2)C(=O)CCSC[C@H](NC(=O)[C@H](CC(C)C)NC(=O)[C@H](Cc2ccc(O)cc2)NC(=O)[C@H](CC(=O)O)NC(=O)[C@@H]2CCCN2C(=O)[C@H](CC2CCC2)NC(=O)[C@H](Cc2ccc(O)cc2)NC1=O)C(=O)N[C@H](C)C(=O)N[C@@H](CC(=O)O)C(=O)N[C@@H](CCC(=O)O)C(=O)N[C@@H](Cc1ccc(O)cc1)C(=O)N[C@H](C(=O)N[C@@H](CCCCNC(=O)CCc1cn(CCOCCOCCOCCOCCNC(=O)CCOCC(COCCC(=O)NCCOCCOCCOCCOCCn2cc(CCC(=O)NCCCC[C@H](NC(=O)[C@@H]4CSCCC(=O)N5CN6CN(C5)C(=O)CCSC[C@H](NC(=O)[C@H](CC(C)C)NC(=O)[C@H](Cc5ccc(O)cc5)NC(=O)[C@H](CC(=O)O)NC(=O)[C@@H]5CCCN5C(=O)[C@H](CC5CCC5)NC(=O)[C@H](Cc5ccc(O)cc5)NC(=O)[C@@H](NC(C)=O)CSCCC6=O)C(=O)N[C@H](C)C(=O)N[C@@H](CC(=O)O)C(=O)N[C@@H](CCC(=O)O)C(=O)N[C@@H](Cc5ccc(O)cc5)C(=O)N4)C(N)=O)nn2)(COCCC(=O)NCCOCCOCCOCCOCCn2cc(CCC(=O)NCCCC[C@H](NC(=O)[C@@H]4CSCCC(=O)N5CN6CN(C5)C(=O)CCSC[C@H](NC(=O)[C@H](CC(C)C)NC(=O)[C@H](Cc5ccc(O)cc5)NC(=O)[C@H](CC(=O)O)NC(=O)[C@@H]5CCCN5C(=O)[C@H](CC5CCC5)NC(=O)[C@H](Cc5ccc(O)cc5)NC(=O)[C@@H](NC(C)=O)CSCCC6=O)C(=O)N[C@H](C)C(=O)N[C@@H](CC(=O)O)C(=O)N[C@@H](CCC(=O)O)C(=O)N[C@@H](Cc5ccc(O)cc5)C(=O)N4)C(N)=O)nn2)NC(=O)CCOCCOCCOCCOCCOCCC(=O)N[C@@H](C)C(=O)N[C@@H](CCCCNC(=N)N)C(=O)N[C@@H](CC(=O)O)C(=O)N[C@H]2CSCCC(=O)N4CN5CN(C4)C(=O)CCSC[C@H](NC(=O)[C@H](CC(C)C)NC(=O)[C@@H]4CCCN4C(=O)[C@H](CC(N)=O)NC(=O)[C@H](C(C)C)NC(=O)[C@H](CC(C)C)NC(=O)[C@@H]4C[C@@H](O)CN4C2=O)C(=O)N[C@@H](CC(C)C)C(=O)N[C@@H](Cc2c[nH]cn2)C(=O)N2CCC[C@H]2C(=O)N[C@H](CC(=O)O)C(=O)N[C@@H](Cc2c[nH]c4ccccc24)C(=O)N[C@@H](CCCCNC(=N)N)C(=O)N[C@H](C(N)=O)CSCCC5=O)nn1)C(N)=O)CSCCC3=O [BCY21686]
[1]
  TNF-alpha and IFN-gamma production from NK cells: Cytokine production from NK cells was observed
HT1080-luc cells
  effect on tumor cell killing by NK cells, in words: enhanced, dose-dependent effect in tumor cell killing
[2]
  EC50: 1.3 pM

## BCY18048: EphA2 specific peptide BCY9594 linked to two NKp46 specific peptides (BCY17662) via N-(acid-PEG3)-N-bis(PEG3-azide) linker (peptide 1 A[hArg]DC[Hyp]LVNPLCLHP[dD]W[hArg]C; peptide 2 ACYLPDYLC[dK](Pent4ynoyl)DEYCA; linker I:4-I:11-I:18, II:2-II:9-II:14 via TATA; also: chain 1 N-terminus and chain 2 D-Lys(PYA) joined through N-(acid-PEG3)-N-bis(PEG3-azide) linker, two copies of chain 2)
[1]; 10 nM construct, ELISA, FIG. 12
  secretion of IFN-gamma and TNF-alpha by NK cells: induced secretion of IFN-gamma and TNF-alpha

## BCY21687: EphA2 specific peptide BCY9594 linked to three NKp46 specific peptides (BCY17224) via Methane-N-(PEG10-acid)-Tri(MeOPr-amide-PEG10-azide) linker (peptide 1 A[hArg]DC[Hyp]LVNPLCLHP[dD]W[hArg]C; peptide 2 Ac-CY[Cba]PDYLC[dA]DEYCK(Pent4ynoyl); linker I:4-I:11-I:18, II:1-II:8-II:13 via TATA; also: chain 1 N-terminus and chain 2 K(PYA) joined through Methane-N-(PEG10-acid)-Tri(MeOPr-amide-PEG10-azide) linker, three copies of chain 2)
[1]
  TNF-alpha and IFN-gamma production from NK cells: Cytokine production from NK cells was observed

B1: heterotandem bicyclic peptide complex BCY21686 (peptide)
peptide 1: A[hArg]DC[Hyp]LVNPLCLHP[dD]W[hArg]C
peptide 2: Ac-CY[Cba]PDYLC[dA]DEYCK(Pent4ynoyl)
modifications: linker I:4-I:11-I:18, II:1-II:8-II:13 via TATA; not fully specified (bridges); also: EphA2:NKp46 1:3, three copies of chain 2 on the linker, linker also given with PEG3-acid, X5, X17: HyP or HArg
NKp46 (human)
  EC50, NK cytotoxicity assay (HT1080-luc luminescence): 1.3 pM

B2: heterotandem bicyclic peptide complex BCY18731 (peptide)
peptide 1: A[hArg]DC[Hyp]LVNPLCLHP[dD]W[hArg]C
peptide 2: Ac-CY[Cba]PDYLC[dA]DEYCK(Pent4ynoyl)
modifications: linker I:4-I:11-I:18, II:1-II:8-II:13 via TATA; not fully specified (bridges); also: joined via azide-PEG24-acid linker (N-terminus of chain 1 to PYA of chain 2, triazole)
NKp46 (human)
  EC50, NK cytotoxicity assay (HT1080-luc luminescence): 18 pM

B3: heterotandem bicyclic peptide complex BCY17226 (peptide)
peptide 1: AXDCXLVNPLCLHPDWXC
peptide 2: CYXPDYLCADEYCK
modifications: BCY17224: N-terminal acetyl; Cba (beta-cyclobutylalanine) and dA (D-Ala) within SEQ ID NO: 5; C-terminal Lys(PYA) joined to the linker azide; Ci, Cii, Ciii cyclised on TATA scaffold; BCY9594: HArg (homoarginine) as 2nd residue of the N-terminal extension; HyP, dD and HArg within SEQ ID NO: 2; Ci, Cii, Ciii cyclised on TATA scaffold; N-terminus joined to the linker
[3]
  EC50, NK cytotoxicity assay (HT1080-luc luminescence): 6.1 pM
